Tests used:
ECO 190317 [1] = assay: MIC, broth microdilution (CLSI), substance alone or ATB combined with compound at 4 or 8 μg/mL; type: cell-based, E. coli; settings: Escherichia coli; substance alone; ECO 190317; read-out: MIC
In short: (§1)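 Antibiotic MICs were determined in presence of fixed compound at 4 or 8 μg/mL, and compound MICs alone, by visual growth inhibition. Inoculum 5·10^5 CFU/mL in ca-MHB, incubated 35 °C for 16-20 h per CLSI-M7-A7. Glucose-6-phosphate (25 μg/ml) added when fosfomycin was tested.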

ECO UFR39 = assay: as above; type: cell-based, E. coli; settings: Escherichia coli; substance alone; ECO UFR39; read-out: MIC
In short: as §1

KPN BAA-1898 = assay: as above; type: cell-based, K. pneumoniae; settings: Klebsiella pneumoniae, BAA1898; substance alone; KPN BAA-1898; read-out: MIC
In short: as §1

KPN UFR42 = assay: as above; type: cell-based, K. pneumoniae; settings: Klebsiella pneumoniae; substance alone; KPN UFR42; read-out: MIC
In short: as §1

ECL P99 [2] = assay: as above; type: cell-based, E. cloacae; settings: Enterobacter cloacae; substance alone; ECL P99; read-out: MIC
In short: as §1

PAE 105250 = assay: as above; type: cell-based, P. aeruginosa; settings: PAE 105250; for MIC ATB combined with compound: compound @8 μg/ml
In short: as §1

PAE UFR48 [3] = assay: as above; type: cell-based, P. aeruginosa; settings: PAE UFR48; for MIC ATB combined with compound: compound @8 μg/ml
In short: as §1

PAE UFR90 [4] = assay: as above; type: cell-based, P. aeruginosa; settings: PAE UFR90; for MIC ATB combined with compound: compound @8 μg/ml
In short: as §1

SAU 29213 = assay: as above; type: cell-based, S. aureus; settings: for MIC ATB combined with compound: compound @8 μg/ml, SAU 29213
In short: as §1

SPN 49619 = assay: as above; type: cell-based, S. pneumoniae; settings: SPN 49619; for MIC ATB combined with compound: compound @8 μg/ml
In short: as §1

PAE UFR48 [5] = assay: Fractional Inhibitory Concentration Index, checkerboard assay; type: cell-based, P. aeruginosa
Experimental: (§2) Method 2: Determination of the Fractional Inhibitory Concentration Index
(§3) Serial 2-fold dilutions of each antibiotic tested were prepared in ca-MHB and mixed in each well of a 96-well microtiter plate so that each row (and column) contained a fixed amount of one agent and increasing amounts of the second agent. The range of drug concentrations used in the checkerboard analysis was such that the dilution range encompassed the MIC for each drug used in the analysis. Broth microdilution plates were inoculated with each strain (Table 3) to yield 5.10^5 CFU/mL in a 100 μL final volume and incubated for 18 h at 35° C. in ambient air. Assays including Fosfomycin were supplemented with 25 μg/ml of Glucose-6-phosphate. MICs were determined after overnight incubation, and the fractional inhibitory concentration (FIC) index was calculated for each well. The FIC index (FICI) was calculated for each combination according to the equation FICI=FICa+FICb=(MIC of drug A in combination/MIC of drug A alone)+(MIC of drug B in combination/MIC of drug B alone). The FICI was interpreted as follows: synergy, FICI […]; indifference, 0.5<FIC<4; and antagonism, FICI>4. The checkerboard assays were performed in duplicate.

PAE UFR90 [6] = assay: as above; type: cell-based, P. aeruginosa
Experimental: as §2, §3

KPN UFR68 = assay: as above; type: cell-based, K. pneumoniae
Experimental: as §2, §3

ECL P99 [7] = assay: as above; type: cell-based, E. cloacae
Experimental: as §2, §3

ECO 190317 [8] = assay: as above; type: cell-based, E. coli
Experimental: as §2, §3

[9] = Pseudomonas aeruginosa, substance alone, read-out: MIC

For `NCCn1c2c(sc1=O)C1CN(C2)C(=O)N1OS(=O)(=O)[O-].[Na+]` (stereo not drawn) [Example 3, sodium and 2,2,2-trifluoroacetate [5-(2-azaniumethyl)-4,9-dioxo-3-thia-5,8,10-triaza-tricyclo[6.2.1.0^2,6]undec-2(6)-en-10-yl] sulfate], the MIC (ECO 190317 [1]) was 0.25 µg/mL, the MIC (ECO UFR39) was 0.5 µg/mL and the MIC (KPN BAA-1898) was 16 µg/mL. The MIC (KPN UFR42) was 16 µg/mL, the MIC (ECL P99 [2]) was 0.5 µg/mL and the “MIC ATB combined with compound” value (PAE 105250; ATB ATM) was less than 0.031 µg/mL. For the same compound, the “MIC ATB combined with compound” value (PAE 105250; ATB FEP) was less than 0.031 µg/mL, the “MIC ATB combined with compound” value (PAE 105250; ATB FOS) was 16 µg/mL and the “MIC ATB combined with compound” value (PAE 105250; ATB MEM) was 0.063 µg/mL. The “MIC ATB combined with compound” value (PAE 105250; ATB PIP) was 0.063 µg/mL, the MIC (PAE 105250; [9]) was 8 µg/mL and the “MIC ATB combined with compound” value (PAE UFR48 [3]; ATB ATM) was 2 µg/mL. For the same compound, the “MIC ATB combined with compound” value (PAE UFR48 [3]; ATB FEP) was less than 0.031 µg/mL, the “MIC ATB combined with compound” value (PAE UFR48 [3]; ATB FOS) was 2 µg/mL and the “MIC ATB combined with compound” value (PAE UFR48 [3]; ATB MEM) was “<=0.031 μg/mL”. For the same compound, the “MIC ATB combined with compound” value (PAE UFR48 [3]; ATB PIP) was less than 0.031 µg/mL, the MIC (PAE UFR48 [3]; [9]) was 8 µg/mL and the “MIC ATB combined with compound” value (PAE UFR90 [4]; ATB ATM) was less than 0.031 µg/mL. The “MIC ATB combined with compound” value (PAE UFR90 [4]; ATB FEP) was less than 0.031 µg/mL, the “MIC ATB combined with compound” value (PAE UFR90 [4]; ATB FOS) was less than 0.125 µg/mL and the “MIC ATB combined with compound” value (PAE UFR90 [4]; ATB MEM) was less than 0.031 µg/mL. The “MIC ATB combined with compound” value (PAE UFR90 [4]; ATB PIP) was less than 0.031 µg/mL, the MIC (PAE UFR90 [4]; [9]) was 8 µg/mL and the “MIC ATB combined with compound” value (SAU 29213; ATB ATM) was greater than 32 µg/mL. For the same compound, the “MIC ATB combined with compound” value (SAU 29213; ATB FEP) was 1 µg/mL, the “MIC ATB combined with compound” value (SAU 29213; ATB FOS) was “<=0.125 μg/mL” and the “MIC ATB combined with compound” value (SAU 29213; ATB MEM) was 0.063 µg/mL. For the same compound, the “MIC ATB combined with compound” value (SAU 29213; ATB PIP) was 0.5 µg/mL, the MIC (SAU 29213; Staphylococcus aureus, substance alone, SAU 29213 (MSSA 29213), read-out: MIC) was 32 µg/mL and the “MIC ATB combined with compound” value (SPN 49619; ATB ATM) was less than 0.031 µg/mL. The “MIC ATB combined with compound” value (SPN 49619; ATB FEP) was less than 0.031 µg/mL, the “MIC ATB combined with compound” value (SPN 49619; ATB FOS) was “<=0.125 μg/mL” and the “MIC ATB combined with compound” value (SPN 49619; ATB MEM) was less than 0.031 µg/mL. For the same compound, the “MIC ATB combined with compound” value (SPN 49619; ATB PIP) was less than 0.031 µg/mL, the MIC (SPN 49619; Streptococcus pneumoniae, substance alone, read-out: MIC) was 1 µg/mL and the FIC index min (PAE UFR48 [5]; compound +ATM) was 0.13. For the same compound, the FIC index min (PAE UFR48 [5]; compound +FEP) was 0.50, the FIC index min (PAE UFR48 [5]; compound +FOS) was 0.34 and the FIC index min (PAE UFR48 [5]; compound +MEM) was 0.75. It also gave an FIC index min (PAE UFR48 [5]; compound +PIP) of 0.31, an FIC index min (PAE UFR90 [6]; compound +ATM) of 0.75 and an FIC index min (PAE UFR90 [6]; compound +FEP) of 0.32. The FIC index min (PAE UFR90 [6]; compound +FOS) was 0.88, the FIC index min (PAE UFR90 [6]; compound +MEM) was 0.75 and the FIC index min (PAE UFR90 [6]; compound +PIP) was 0.63. It also gave an FIC index min (KPN UFR68; compound +ATM) of 0.049, an FIC index min (KPN UFR68; compound +FEP) of 0.021 and an FIC index min (KPN UFR68; compound +FOS) of 0.080. For the same compound, the FIC index min (KPN UFR68; compound +MEM) was 0.16, the FIC index min (KPN UFR68; compound +PIP) was 0.10 and the FIC index min (ECL P99 [7]; compound +ATM) was 0.28. It also gave an FIC index min (ECL P99 [7]; compound +FEP) of 0.31, an FIC index min (ECL P99 [7]; compound +FOS) of no more than 0.13 and an FIC index min (ECL P99 [7]; compound +MEM) of 0.54. The FIC index min (ECL P99 [7]; compound +PIP) was 0.13, the FIC index min (ECO 190317 [8]; compound +ATM) was 0.27 and the FIC index min (ECO 190317 [8]; compound +FEP) was 0.19. For the same compound, the FIC index min (ECO 190317 [8]; compound +FOS) was 0.66, the FIC index min (ECO 190317 [8]; compound +MEM) was 0.56 and the FIC index min (ECO 190317 [8]; compound +PIP) was no more than 0.5.

From US20200024278A1, “COMPOSITION COMPRISING ANTIBIOTIC COMPOUND AND AN HETEROCYCLIC COMPOUND AND THEIR USE IN PREVENTING OR TREATING BACTERIAL INFECTIONS” (MUTABILIS, priority 2016, published 2020)
